Tests used:
[1] = test system: MYC-G4 (DNA, G4) TGAGGGTGGGTAGGGTGGGTAA; test: 1H NMR titration; settings: 50 mM K+; 150 μM DNA, pH 7, 25 °C, DMSO-d6 < 1.5%
[2] = test system: VEGF-G4 (DNA, G4) CAGGGCGGGCCTTGGGCGGGAT; test: 1H NMR titration; settings: 50 mM K+; 150 μM DNA, pH 7, 25 °C, DMSO-d6 < 1.5%
[3] = test system: KRAS-G4 (Pu24m1) (DNA, G4) TGAGGGCGGTGTGGGAATAGGGAA; test: CD melting (264 nm); settings: 15 mM K+; potassium phosphate/KCl, pH 7; 20 μM DNA, 2 equivalents compound
[4] = test system: KRAS-G4 (Pu24m1) (DNA, G4) TGAGGGCGGTGTGGGAATAGGGAA; test: NMR solution structure; settings: 50 mM K+; 1.5 mM DNA, pH 7, DMSO-d6 < 3.5%; stacks on both outer tetrads
[5] = test system: KRAS-G4 (Pu24m1) (DNA, G4) TGAGGGCGGTGTGGGAATAGGGAA; test: fluorescence titration; settings: 50 mM K+; pH 7; 0.2 μM compound fixed, titrated with DNA; 2:1 binding equation

| binding [1] | binding [2] | ΔTm [3] [°C] | binding [4] | Kd [5] [nM] | Structure (SMILES) |
| --- | --- | --- | --- | --- | --- |
| yes | yes | 15 | yes | 550 | COc1ccc2cc3[n+](cc2c1OC)CCc1cc2c(cc1-3)OCO2 |
| yes | yes | 19 | yes | 500 | c1c2c(cc3c1OCO3)-c1cc3ccc4c(c3c[n+]1CC2)OCO4 |

Source: article PMC9556435 (2022)
